Results taken from patent US12496303B2, “Conditioning agents for use in allogeneic hematopoietic stem cell transplantation” (priority 2020, dated 2025).

Assays:
[1] = system: IL-15-stimulated B6 splenic NK cells; assay: functional assays of cytokine-stimulated splenic NK cells; assay type: cell-based, mouse
Procedure: FIG. 5A-FIG. 5H. […] Data points and error bars represent mean±SEM.
Cytokine concentrations in culture supernatant or mouse plasma were measured with the LegendPLEX Inflammation Panel (13-plex) or the Mouse Th1 Panel (5-plex) per the manufacturer protocols (BioLegend). Quantification was done using LegendPLEX software v8.0 for Windows. If a cytokine concentration was too low to be quantified, the sample was assigned the value of the lower limit of quantitation. For intracellular IFNγ analysis of splenic NK cells, cells were cultured in K10 media with or without cytokine stimulation for 15 hours, with 5 μg/mL Brefeldin A (BioLegend) added to each well for the last 2.5 hours. After this incubation period, cells were fixed, saponin-permeabilized, and stained as described above.

[2] = fully MHC-mismatched allo-HSCT (BALB/c→B6), preliminary; assay type: in vivo, mouse; conditions: continuous baricitinib plus CD45-SAP conditioning, preliminary (not shown)
Source text: Continued optimization of our conditioning regimens aims to achieve robust, high-level engraftment in fully haploidentical (F1-to-F1) and fully MHC-mismatched allo-HSCT.

[3] = acute effects of four days daily baricitinib on blood and lymphoid organs; assay type: in vivo, B6 mice
Source text: FIG. 16A-FIG. 16G. […] The color scheme in the legend (upper-right) is used throughout the figure. (A and B) Complete blood counts (A) and organ cellularity of spleen and bone marrow (B). (C) Proportions of HSPC subsets in bone marrow. (D) Absolute B, T, and myeloid (Gr1+ and/or CD11b+) cell counts in spleen, blood, and bone marrow. (E) Frequencies of FoxP3+ Tregs (relative to total CD4+ T cells) in spleen, blood and bone marrow. (F and G) Cell surface phenotyping of splenic T cells (F) and APCs (G). Data points and error bars represent mean±SEM, with mice pooled across 3 experiments. For statistical comparison: ns=not significant, * is p<0.05, ** is p<0.01, *** is p<0.001, and **** is p<0.0001.
(§1) Immediately prior to injection, these DMSO stocks were thawed, diluted 1:10 in PBS, and injected at 200 μl/mouse subcutaneously (400 μg daily dose).

[4] = system: NK cell-mediated rejection; assay: parent-to-F1 allo-HSCT (B6→CB6F1), NK cell-mediated rejection; assay type: in vivo, mouse; conditions: CD45-SAP plus baricitinib
Procedure: (§2) Mice were injected with CD45-SAP or cKit-SAP at doses indicated in each figure at 7 days pre-transplant (d-7). In general, 3 mg/kg (75 μg) CD45-SAP, and 0.4 mg/kg or 2 mg/kg (10 or 50 μg, respectively) cKit-SAP were used. On transplant day (d0), mice received 10×10^6 whole donor bone marrow cells via the retroorbital injection.
(§3) CD4^+ and CD8^+ T cell depletion was done using clones GK1.5 and YTS169.4, respectively, and NK cell depletion done using clone PK136. […] All antibodies were administered intraperitoneally at 250 μg per dose following the schema for each experiment.
as §1

[5] = miHA-mismatched allo-HSCT (BALB/c-Ly5.1→DBA/2); assay type: in vivo, mouse; conditions: CD45-SAP conditioning plus daily baricitinib
Procedure: (§4) To investigate the efficacy of ADCs for allo-HSCT conditioning, two transplant models were used (see e.g., FIG. 2A): a miHA-mismatched BALB/c-Ly5.1→DBA/2 model and a haploidentical CB6F1→B6 (F1-to-parent) model MHC-mismatched for H-2d in the host-versus-graft direction. CD45-SAP was chosen for conditioning in these studies to leverage its lymphodepleting activity to overcome graft rejection.
as §2, §3, §1

[6] = minor- and major-mismatched alloHSCT models, summary statements; assay type: in vivo, mouse
Source text: This example describes the combination of JAK1/JAK2 (JAK1/2) inhibitors and CD45-ADC.

[7] = solubility testing of baricitinib in osmotic pump vehicles; assay type: physicochemical
[8] = MHC-mismatched haploidentical allo-HSCT (CB6F1→B6); assay type: in vivo, mouse
Procedure: as §4, §2, §3, §1
ALZET subcutaneous osmotic pumps (Model 2004) were used to continuously deliver JAK1/2 inhibitors to mice for 28 days at a rate of 0.25 μL/hour (6 μL/day). A vehicle of 50% dimethyl sulfoxide (DMSO)/50% polyethylene glycol 400 (PEG-400) was used for all experiments. JAK1/2 inhibitors were prepared at 2× concentration (133.3 mg/mL) in 100% DMSO then diluted to 1× with an equal volume of PEG-400 (66.7 mg/mL, 400 μg total daily dose). Prepared compounds were then loaded into osmotic pumps per the manufacturer's instructions and surgically implanted in accordance with our IACUC-approved protocol.

[9] = system: αCD3-stimulated B6 T cells; assay: αCD3-stimulated CFSE-labeled T cell culture; assay type: cell-based, mouse; conditions: 72 hours, highest tested dose
Procedure: FIG. 4A-FIG. 4E. […] (B) Donor chimerism in spleen and bone marrow of mice from panel (A). […] (D) Proliferation and viability of cultures in (C). (E) Cytokines present in supernatants collected from cultures described in (C) after 24 hours incubation. For (C-E), data from three technical replicates are shown from one representative of four experiments. For all panels, data points and error bars represent mean±SEM.
For ex vivo stimulation of primary mouse T cells, 1×10^5 T cells purified from spleen and lymph nodes with the EasySep Mouse T cell Isolation Kit (Stem Cell Technologies; Vancouver, BC, Canada) were cultured with 4×10^5 T-depleted splenocytes in 96-well round bottom plates in R10 media with 1 μg/mL αCD3. Supernatants were collected for cytokine analysis after 24 hours incubation, and cultured cells were analyzed for expansion by flow cytometry at 72 hours.
Cytokine concentrations in culture supernatant or mouse plasma were measured with the LegendPLEX Inflammation Panel (13-plex) or the Mouse Th1 Panel (5-plex) per the manufacturer protocols (BioLegend). Quantification was done using LegendPLEX software v8.0 for Windows. If a cytokine concentration was too low to be quantified, the sample was assigned the value of the lower limit of quantitation. […]

[10] = CD45-ADC single dose d-7 plus baricitinib for 3-4 weeks

## CCS(=O)(=O)N1CC(CC#N)(n2cc(-c3ncnc4[nH]ccc34)cn2)C1 [baricitinib]
[1]
  nonspecific toxicity in unstimulated NK cultures: modest and noted only at the highest baricitinib doses
[2]
  engraftment success: ~25%
[3]; baricitinib- vs vehicle-treated
  immunophenotyping of splenic T cell and APC compartments: no differences
[3]; daily baricitinib 4 days
  B cells in spleens: lower frequencies of B cells
  CBCs or bone marrow cellularity: minimally affected
  bone marrow HSPC numbers: largely unaffected
  spleen cellularity: significant reduction
[3]; daily baricitinib 4 days, bone marrow
  frequencies of long-term HSC and megakaryocyte-erythroid progenitors: somewhat lower frequencies
[4]
  overall donor chimerism: ~60%
[5]
  overall multilineage donor chimerism of engrafted mice: ~80%
[6]; [10]
  donor chimerism: up to 90%
  share of treated mice achieving the donor chimerism: at least 70 % of the mice
[6]; CD45-targeted ADCs combined with baricitinib
  donor chimerism, multilineage alloengraftment: 80-90%
[7]; DMSO mixed 1:1 with PEG-400
  solubility: readily soluble
[7]; DMSO/PEG-400 vehicle, 30-day incubation at 37° C.
  solubility after incubation: remained soluble
[8]; CD45-SAP plus continuously-infused baricitinib (osmotic pump, 400 μg daily)
  overall donor chimerism: > 80%
[8]; CD45-SAP, daily baricitinib and pre-transplant pan-TCD
  overall donor chimerism: > 90%
[8]; continuous baricitinib plus CD45-SAP
  engraftment rate: ~70%
[9]
  cell death in unstimulated cultures: only subtly increased
